The values that follow come from PMC12296639, “Synthesis and Bioactivity Investigation of Novel 2-({2-[(Dialkylamino) Methyl] Quinazolin-4-one-3-yl} Methyl) Benzonitrile Derivatives as Dipeptidyl Peptidase-4 Inhibitory Agent” (Iranian Journal of Pharmaceutical Research : IJPR, 2025).

Each structure is given as a SMILES string.

This assay deals with T1, DPP-4 (Homo sapiens, UniProt P27487).
T1 construct: purchased MAK203
T1 sequence (P27487 whole entry): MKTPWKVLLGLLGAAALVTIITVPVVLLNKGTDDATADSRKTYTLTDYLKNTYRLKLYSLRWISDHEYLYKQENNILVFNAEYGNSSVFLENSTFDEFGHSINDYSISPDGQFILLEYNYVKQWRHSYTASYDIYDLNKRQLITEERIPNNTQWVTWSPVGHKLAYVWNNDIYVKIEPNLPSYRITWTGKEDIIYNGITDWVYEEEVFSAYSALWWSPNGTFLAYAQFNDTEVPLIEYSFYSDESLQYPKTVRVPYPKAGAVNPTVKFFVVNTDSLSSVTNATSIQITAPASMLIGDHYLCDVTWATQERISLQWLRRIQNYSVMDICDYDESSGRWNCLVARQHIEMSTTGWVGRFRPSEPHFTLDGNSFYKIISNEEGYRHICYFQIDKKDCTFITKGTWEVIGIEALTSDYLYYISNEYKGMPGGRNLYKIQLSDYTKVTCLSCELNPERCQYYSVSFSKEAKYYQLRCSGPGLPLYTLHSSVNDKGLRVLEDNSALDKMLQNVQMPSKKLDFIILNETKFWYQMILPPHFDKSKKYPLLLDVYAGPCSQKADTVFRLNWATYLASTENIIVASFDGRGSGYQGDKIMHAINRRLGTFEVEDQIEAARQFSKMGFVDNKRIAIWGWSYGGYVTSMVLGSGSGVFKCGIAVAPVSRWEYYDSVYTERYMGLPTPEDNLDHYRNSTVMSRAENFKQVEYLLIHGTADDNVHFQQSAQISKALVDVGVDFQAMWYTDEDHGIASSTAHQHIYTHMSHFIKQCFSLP
Put plainly: in vitro DPP-4 inhibitory activity assay (DPP-4 inhibitor screening kit MAK203). The assay is classed as biochemical. To be noted: fluorescence assay kit, 37°C; IC50 from linear equation of inhibition % vs concentration. Here is the method:
The in vitro DPP-4 inhibitory activity of the prepared compounds was evaluated using the DPP-4 inhibitor screening kit (MAK203) according to the test protocol with slight modifications ([17]). […] Substrate solutions (25 μL) were added to each well, covered, and incubated at 37°C for 30 minutes. […] The following formula was used to calculate the percent inhibition (Equation 1):
Inhibition %= (initial activity-inhibitor activity)/initial activity×100 %
The IC50 value was calculated from y = a + bx (linear equation) obtained from the relation of the inhibition activity (%) (y) and the concentration (x) of the substance being measured.
Compound `CN(C)Cc1nc2ccccc2c(=O)n1Cc1ccccc1C#N` [5a, 2-({2-[Dimethylaminomethyl]quinazolin-4-one-3-yl}methyl)benzonitrile] yielded an IC50 of 4.92 µM.

On to `CCN(CC)Cc1nc2ccccc2c(=O)n1Cc1ccccc1C#N` [5b, 2-({2-[Diethylaminomethyl]quinazolin-4-one-3-yl}methyl)benzonitrile], for which half-maximal inhibition (IC50) was put at 5.29 µM.

On to `CCCCN(CCCC)Cc1nc2ccccc2c(=O)n1Cc1ccccc1C#N` [5c, 2-({2-[Dibutylaminomethyl]quinazolin-4-one-3-yl}methyl)benzonitrile], for which the half-inhibitory concentration (IC50) came out at 6.78 µM.

`N#Cc1ccccc1Cn1c(CN2CCOCC2)nc2ccccc2c1=O` [5d, 2-({2-[Morpholinomethyl]quinazolin-4-one-3-yl}methyl)benzonitrile] displayed an IC50 of 1.46 µM.

For the compound `N#Cc1ccccc1Cn1c(CN2CCCC2)nc2ccccc2c1=O` [5e, 2-({2-[Pyrrolidinomethyl]quinazolin-4-one-3-yl}methyl)benzonitrile], the IC50 was determined as 3.07 µM.

Take `CN1CCN(Cc2nc3ccccc3c(=O)n2Cc2ccccc2C#N)CC1` [5f, 2-({2-[N-methylpiperazinomethyl]quinazolin-4-one-3-yl}methyl)benzonitrile]: the IC50 stood at 3.56 µM.
